Laboratory results: a compilation of properties of binary mixtures (doi:10.1021/jp3100377)

Test: xn = mol fraction of the nth substance listed
Conditions: 100 kPa

CC(=O)[O-].CC[n+]1ccn(C)c1 + O
viscosity [mPa·s]
Conditions	293.15 K	303.15 K	313.15 K	323.15 K	333.15 K	343.15 K	353.15 K
x2 = 0	203	104.8	61.1	38.9	26.56	19.01	14.24
x2 = 0.2088	–	77.9	–	–	20.8	–	–
x2 = 0.4	88.6	–	–	23.04	16.47	–	9.27
x2 = 0.6014	51.8	32.6	21.88	15.4	11.09	8.39	–
x2 = 0.8023	20.45	13.51	9.41	6.6	4.95	–	3.021
